Test results published in ChEMBL document CHEMBL5104093, “A comprehensive review on β-lapachone: Mechanisms, structural modifications, and therapeutic potentials” (Eur J Med Chem, 2021).
≈ marks a conversion by molar mass, not a printed value.

Legend:
[1] = system: Mycobacterium tuberculosis; test: Antimycobacterial activity against Mycobacterium tuberculosis H37Rv ATCC 27294 assessed as bacterial growth inhibition incubated for 5 days by Alamar blue reagent based assay; format: functional; details: ATCC 27294, 120 h, time 5 day
HCT-116 [2] = test: Cytotoxicity against human HCT-116 cells assessed as reduction in cell viability incubated for 72 hrs by MTT assay; format: functional, cell-based; details: HCT-116, 72 h
NCI-H1975 = test: Cytotoxicity against human NCI-H1975 cells assessed as reduction in cell viability incubated for 72 hrs by MTT assay; format: functional, cell-based; details: NCI-H1975, 72 h
SF-295 = test: Cytotoxicity against human SF-295 cells assessed as reduction in cell viability incubated for 72 hrs by MTT assay; format: functional, cell-based; details: SF-295, 72 h
HL-60 [3] = test: Cytotoxicity against human HL-60 cells assessed as reduction in cell viability incubated for 72 hrs by MTT assay; format: functional, cell-based; details: HL-60, 72 h
Plasmodium berghei = test: Antiplasmodial activity against Plasmodium berghei infected in Swiss mouse assessed as reduction in parasite growth at 200 mg/kg, sc administered for 7 days; format: functional; details: 168 h, time 7 day
Sporothrix schenckii [4] = test: Antifungal activity against Sporothrix schenckii assessed as fungal growth inhibition incubated for 48 hrs in presence of itraconazole by CLSI-based broth microdilution assay; format: functional
Sporothrix schenckii [5] = test: Antifungal activity against Sporothrix schenckii assessed as fungal growth inhibition incubated for 48 hrs by CLSI-based broth microdilution assay; format: functional
Sporothrix [6] = test: Antifungal activity against Sporothrix brasiliensis assessed as fungal growth inhibition incubated for 48 hrs in presence of itraconazole by CLSI-based broth microdilution assay; format: functional
Sporothrix [7] = test: Antifungal activity against Sporothrix brasiliensis assessed as fungal growth inhibition incubated for 48 hrs by CLSI-based broth microdilution assay; format: functional
Staphylococcus aureus = test: Antibacterial activity against Staphylococcus aureus 2065 MA assessed as diameter of bacterial growth inhibition by Mueller-Hinton broth based assay; format: functional
PC-3 = test: Cytotoxicity against human PC-3 cells assessed as reduction in cell viability incubated for 72 hrs by MTT assay; format: functional, cell-based; details: PC-3, 72 h
[8] = Selectivity index, ratio of IC50 for human PBMC cells to IC50 for human K562 cells; format: toxicity; details: PBMC cells versus K562 cells, read-out: Ratio IC50
K562 [9] = test: Cytotoxicity against human K562 cells assessed as reduction in cell viability incubated for 72 hrs by MTT assay; format: functional, cell-based; details: K562, 72 h
[10] = Selectivity index, ratio of IC50 for human PBMC cells to IC50 for human HCT-116 cells; format: toxicity; details: PBMC cells versus HCT-116 cells, read-out: Ratio IC50
B16-F10 = test: Cytotoxicity against mouse B16-F10 cells assessed as reduction in cell viability incubated for 72 hrs by MTT assay; format: functional, cell-based; details: B16-F10, 72 h
[11] = Cytotoxicity against mouse L929 cells assessed as reduction in cell viability incubated for 72 hrs by MTT assay; format: toxicity, cell-based
SNB-19 = test: Cytotoxicity against human SNB-19 cells assessed as reduction in cell viability incubated for 72 hrs by MTT assay; format: functional, cell-based; details: SNB-19, 72 h
MCF7 = test: Cytotoxicity against human MCF7 cells assessed as reduction in cell viability incubated for 72 hrs by MTT assay; format: functional, cell-based; details: MCF7, 72 h
SCC-15 = test: Cytotoxicity against human SCC-15 cells assessed as reduction in cell viability incubated for 72 hrs by alamar blue assay; format: functional, cell-based; details: SCC-15, 72 h
HCT-116 [12] = test: Cytotoxicity against human HCT-116 cells assessed as reduction in cell viability incubated for 72 hrs by alamar blue assay; format: functional, cell-based; details: HCT-116, 72 h
SCC-25 = test: Cytotoxicity against human SCC-25 cells assessed as reduction in cell viability incubated for 72 hrs by alamar blue assay; format: functional, cell-based; details: SCC-25, 72 h
[13] = Cytotoxicity against human AGP01 cells assessed as reduction in cell viability incubated for 72 hrs by alamar blue assay; format: functional, cell-based; details: AGP01, 72 h
HT-29 = test: Cytotoxicity against human HT-29 cells assessed as reduction in cell viability incubated for 72 hrs by alamar blue assay; format: functional, cell-based; details: HT-29, 72 h
HSC-3 = test: Cytotoxicity against human HSC-3 cells assessed as reduction in cell viability incubated for 72 hrs by alamar blue assay; format: functional, cell-based; details: HSC-3, 72 h
[14] = Cytotoxicity against human ACP02 cells assessed as reduction in cell viability incubated for 72 hrs by alamar blue assay; format: functional, cell-based; details: ACP02, 72 h
[15] = Selectivity index, ratio of IC50 for human PBMC cells to IC50 for human HL-60 cells; format: toxicity; details: PBMC cells versus HL-60 cells, read-out: Ratio IC50
SCC-9 = test: Cytotoxicity against human SCC-9 cells assessed as reduction in cell viability incubated for 72 hrs by alamar blue assay; format: functional, cell-based; details: SCC-9, 72 h
HepG2 [16] = test: Cytotoxicity against human HepG2 cells assessed as reduction in cell viability incubated for 72 hrs by alamar blue assay; format: functional, cell-based; details: HepG2, 72 h
K562 [17] = test: Cytotoxicity against human K562 cells assessed as reduction in cell viability incubated for 72 hrs by alamar blue assay; format: functional, cell-based; details: K562, 72 h
SCC-4 = test: Cytotoxicity against human SCC-4 cells assessed as reduction in cell viability incubated for 72 hrs by alamar blue assay; format: functional, cell-based; details: SCC-4, 72 h
[18] = Cytotoxicity against human ACP03 cells assessed as reduction in cell viability incubated for 72 hrs by alamar blue assay; format: functional, cell-based; details: ACP03, 72 h
HL-60 [19] = test: Cytotoxicity against human HL-60 cells assessed as reduction in cell viability incubated for 72 hrs by alamar blue assay; format: functional, cell-based; details: HL-60, 72 h
[20] = Selectivity index, ratio of IC50 for human L02 cells to IC50 for human HepG2 cells; format: toxicity; details: L02 cells versus HepG2 cells, read-out: Ratio IC50
HepG2 [21] = test: Cytotoxicity against human HepG2 cells assessed as reduction in cell viability incubated for 72 hrs by MTT assay; format: functional, cell-based; details: HepG2, 72 h

Cc1ccc(C2CCC3=C(O2)c2ccccc2C(=O)C3=O)cc1 (stereo not given)
MIC [1]: 1.25 µg/mL (≈ 4.11 µM)

Cc1ccc(C2CC(c3ccccc3)C3=C(O2)c2ccccc2C(=O)C3=O)cc1 (stereo not given)
MIC [1]: 3.12 µg/mL (≈ 8.2 µM)

CC1(C)CCC2=C(O1)c1ccccc1/C(=N/O)C2=O
IC50 (HCT-116 [2]): 2.62 µM
IC50 (NCI-H1975): 2.62 µM
IC50 (SF-295): 3.47 µM
IC50 (HL-60 [3]): 3.84 µM

CC1(C)Oc2c(c3nc4ccccc4nc3c3ccccc23)CC1S(=O)(=O)O (stereo not given)
inhibition in vivo at 200 mg/kg (Plasmodium berghei): 98%

O=C1C(=O)c2ccccc2C2=C1CC(c1ccccc1)O2 (stereo not given)
MIC (Sporothrix schenckii [4]): 0.06 µM
MIC (Sporothrix schenckii [5]): 2 µM (≈ 0.553 µg/mL)
MIC (Sporothrix [6]): 0.03 µM
MIC (Sporothrix [7]): 2 µM (≈ 0.553 µg/mL)

CC1(c2ccccc2)CC2=C(O1)c1ccccc1C(=O)C2=O (stereo not given)
MIC (Sporothrix schenckii [4]): 0.06 µM
MIC (Sporothrix schenckii [5]): 2 µM (≈ 0.581 µg/mL)
MIC (Sporothrix [6]): 0.03 µM
MIC (Sporothrix [7]): 2 µM (≈ 0.581 µg/mL)

CC1(C)OC2=C(C(=O)C(=O)c3ccccc32)C1Sc1ccccc1 (stereo not given)
IC50 (HCT-116 [2]): 0.9 µM
zone diameter (Staphylococcus aureus): 11 mm
IC50 (PC-3): 0.9 µM
IC50 (SF-295): 0.9 µM
selectivity ratio [8]: 2.11
IC50 (K562 [9]): 0.9 µM
selectivity ratio [10]: 2.96

O=C1C(=O)c2ccccc2C2=C1CCC(c1ccccc1)O2 (stereo not given)
MIC [1]: 2.5 µg/mL (≈ 8.61 µM)

CC1(C)OC2=C(C(=O)C(=O)c3ccccc32)C1n1cc(C[Se]c2ccccc2)nn1 (stereo not given)
IC50 (HCT-116 [2]): 1.06 µM
IC50 (B16-F10): 1.06 µM
IC50 (PC-3): 1.06 µM
IC50 at 72 h [11]: 1.06 µM
IC50 (SNB-19): 1.06 µM
IC50 (MCF7): 1.06 µM

CC1(C)OC2=C(CC1I)C(=O)C(=O)c1ccccc12 (stereo not given)
IC50 (SCC-15): 0.02 µM
IC50 (HCT-116 [12]): 0.02 µM
IC50 (SCC-25): 0.02 µM
IC50 [13]: 0.02 µM
IC50 (HT-29): 0.02 µM
IC50 (HSC-3): 0.02 µM
IC50 [14]: 0.02 µM
selectivity ratio [15]: 1690
IC50 (SCC-9): 0.02 µM
IC50 (HepG2 [16]): 0.02 µM
IC50 (K562 [17]): 0.02 µM
IC50 (SCC-4): 0.02 µM
IC50 [18]: 0.02 µM
IC50 (HL-60 [19]): 0.02 µM

O=C1C(=O)c2ccccc2C2=C1C1(C(=O)Nc3ccc(F)cc31)N1NN=NC1=N2 (stereo not given)
selectivity ratio [20]: 20.6
IC50 (HepG2 [21]): 2.86 µM
